Patent US9718822B2, “Macrocyclic compounds as Trk kinase inhibitors” (Array BioPharma, Inc., priority 2010, dated 2017)
Like-named read-outs stand apart in the source and are kept apart here.

Legend:
[1] = target: His-tagged recombinant human TrkA (cytoplasmic domain) (Homo sapiens (Human), UniProt P04629); assay: TrkA Binding Assay (LanthaScreen Eu Kinase Binding Assay)
Experimental: The ability of a compound to bind to TrkA was measured by Invitrogen's LanthaScreen™ Eu Kinase Binding Assay. […] After a 60-minute incubation at 22° C., the reaction was measured using the EnVision via TR-FRET dual wavelength detection, and the POC was calculated from the emission ratio. The compound dose response data was fit to a 4-parameter logistic model and IC50 was defined as the concentration of compound at 50 POC.

[2] = target: histidine-tagged recombinant human TrkA, cytoplasmic domain (Homo sapiens (Human), UniProt P04629); assay: TrkA ELISA Assay; format: biochemical; conditions: read-out: TrkA Elisa Enzyme Assay IC50; further: 2.5 nM TrkA
Chain of histidine-tagged recombinant human TrkA, cytoplasmic domain (P04629 440-796): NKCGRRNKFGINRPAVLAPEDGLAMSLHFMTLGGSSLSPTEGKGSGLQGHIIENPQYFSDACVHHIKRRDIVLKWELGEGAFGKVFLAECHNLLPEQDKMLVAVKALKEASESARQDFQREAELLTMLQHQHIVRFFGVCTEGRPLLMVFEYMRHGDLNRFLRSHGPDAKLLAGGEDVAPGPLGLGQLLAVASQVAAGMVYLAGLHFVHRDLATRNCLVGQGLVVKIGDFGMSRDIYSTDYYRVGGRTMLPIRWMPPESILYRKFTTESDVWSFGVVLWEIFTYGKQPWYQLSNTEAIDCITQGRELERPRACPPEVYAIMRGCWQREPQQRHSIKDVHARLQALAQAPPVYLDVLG
Experimental: An enzyme-linked immunosorbant assay (ELISA) was used to assess TrkA kinase activity in the presence of inhibitors. Immulon 4HBX 384-well microtiter plates (Thermo part #8755) were coated with a 0.025 mg/mL solution of poly (Glu, Ala, Tyr; 6:3:1; Sigma P3899). […] The assay buffer consisted of 25 mM MOPS pH 7.5, 0.005% (v/v) Triton X-100 and 5 mM MgCl2. The reaction mixture was removed from the plate by washing with PBS containing 0.1% (v/v) Tween 20. The phosphorylated reaction product was detected using 0.2 μg/mL of a phosphotyrosine specific monoclonal antibody (clone PY20) conjugated to horseradish peroxidase in conjunction with the TMB Peroxidase Substrate System (KPL). After the addition of 1M phosphoric acid, the chromogenic substrate color intensity was quantitated via absorbance at 450 nm. IC50 values were calculated using either a 4 or 5-parameter logistic curve fit.
Table 1 provides averaged IC50 values for compounds of the invention when tested in this assay.

[3] = averaged IC50 values, TR-FRET, 60-minute incubation at 22° C., 2% DMSO final

Chain of His-tagged recombinant human TrkA (cytoplasmic domain) (P04629 440-796): as above

Compound	IC50 [2]	IC50 [1]	other results
O=C1NCCCOc2ccc(F)cc2[C@@H]2C[C@@H](O)CN2c2ccn3ncc1c3n2 [Example 42-B, (4R,6S)-9-fluoro-4-hydroxy-13-oxa-2,17,21,22,25-pentaazapentacyclo [17.5.2.0^2,6.0^7,12.0^22,26]hexacosa-1(25),7(12),8,10,19(26),20,23-heptaen-18-one]	–	–	IC50 [1, 3]: 100 to 3000 nM
Fc1ccc2c(c1)[C@H]1CCCN1c1ccn3ncc(c3n1)CNCCCO2 [Example 24, (6R)-9-fluoro-13-oxa-2,17,21,22,25-pentaazapentacyclo[17.5.2.0^2,6.0^7,12.0^22,26]hexacosa-1(25),7,9,11,19(26),20,23-heptaene]	100 to 3000 nM	–	–
CC1(C)CNC(=O)c2cnn3ccc(nc23)N2CCC[C@@H]2c2cc(F)cn(c2=O)C1 [Example 40, (6R)-9-fluoro-13,13-dimethyl-2,11,15,19,20,23-hexaazapentacyclo [15.5.2.1^7,11.0^2,6.0^20,24]pentacosa-1(23),7,9,17(24),18,21-hexaene-16,25-dione]	–	1 to 100 nM	–
CC(=O)N1CCOc2ccc(F)cc2[C@H]2CCCN2c2ccn3ncc(c3n2)C1 [Example 22, 1-[(6R)-9-fluoro-13-oxa-2,16,20,21,24-pentaazapentacyclo[16.5.2.0^2,6.0^7,12.0^21,25]pentacosa-1(24),7,9,11,18(25),19,22-heptaen-16-yl]ethan-1-one]	1 to 100 nM	–	–
CC1(C)CNC(=O)c2cnn3ccc(nc23)N2CCC[C@@H]2c2cc(F)cnc2OC1 [Example 36, (6R)-9-fluoro-15,15-dimethyl-13-oxa-2,11,17,21,22,25-hexaazapentacyclo [17.5.2.0^2,6.0^7,12.0^22,26]hexacosa-1(25),7,9,11,19(26),20,23-heptaen-18-one]	–	1 to 100 nM	–
Fc1ccc2c(c1)[C@H]1CCCN1c1ccn3ncc(c3n1)CNCCO2 [Example 21, (6R)-9-fluoro-13-oxa-2,16,20,21,24-pentaazapentacyclo[16.5.2.0^2,6.0^7,12.0^21,25]pentacosa-1(24),7,9,11,18(25),19,22-heptaene]	100 to 3000 nM	–	–
O=C1NCCCCOc2ncc(F)cc2[C@H]2CCCN2c2ccn3ncc1c3n2 [Example 10, (6R)-9-fluoro-13-oxa-2,11,18,22,23,26-hexaazapentacyclo[18.5.2.0^2,6.0^7,12.0^23,27]heptacosa-1(26),7,9,11,20(27),21,24-heptaen-19-one]	1 to 100 nM	1 to 100 nM	–
O=C(CO)N1CCOc2ccc(F)cc2[C@H]2CCCN2c2ccn3ncc(c3n2)C1 [Example 23, 1-[(6R)-9-fluoro-13-oxa-2,16,20,21,24-pentaazapentacyclo[16.5.2.0^2,6.0^7,12.0^21,25]pentacosa-1(24),7,9,11,18(25),19,22-heptaen-16-yl]-2-hydroxyethan-1-one]	1 to 100 nM	1 to 100 nM	–
O=C1NCC(O)COc2ncc(F)cc2[C@H]2CCCN2c2ccn3ncc1c3n2 (stereo partly drawn) [Example 6, (6R)-9-fluoro-15-hydroxy-13-oxa-2,11,17,21,22,25-hexaazapentacyclo-[17.5.2.0^2,6.0^7,12.0^22,26]hexacosa-1(25),7,9,11,19(26),20,23-heptaen-18-one]	–	–	IC50 ([2]; averaged IC50 values, […] TrkA, 500 μM ATP, 25 minutes at ambient temperature): 1 to 100 nM; IC50 [1, 3]: 1 to 100 nM
O=C1NCCNc2ncc(F)cc2[C@H]2CCCN2c2ccn3ncc1c3n2 [Example 12, (6R)-9-fluoro-2,11,13,16,20,21,24-heptaazapentacyclo[16.5.2.0^2,6.0^7,12.0^21,25]pentacosa-1(24),7,9,11,18(25),19,22-heptaen-17-one]	1 to 100 nM	–	–
O=C1NCCOc2ccc(F)cc2[C@@H]2C[C@@H](O)CN2c2ccn3ncc1c3n2 [Example 43-B, (4R,6S)-9-fluoro-4-hydroxy-13-oxa-2,16,20,21,24-pentaazapentacyclo [16.5.2.0^2,6.0^7,2.0^21,25]pentacosa-1(24),7,9,11,18(25),19,22-heptaen-17-one]	–	–	IC50 [1, 3]: 100 to 3000 nM
O=C1NCCCOc2ccc(F)cc2[C@H]2C[C@@H](O)CN2c2ccn3ncc1c3n2 [Example 42, (4R,6R)-9-fluoro-4-hydroxy-13-oxa-2,17,21,22,25-pentaazapentacyclo [17.5.2.0^2,6.0^7,12.0^22,26]hexacosa-1(25),7(12),8,10,19(26),20,23-heptaen-18-one]	–	1 to 100 nM	–
O=C1NCCOc2ncc(F)cc2[C@H]2COC(=O)N2c2ccn3ncc1c3n2 [Example 31, (6S)-9-fluoro-4,13-dioxa-2,11,16,20,21,24-hexaazapentacyclo [16.5.2.0^2,6.0^7,12.0^21,25]pentacosa-1(24),7(12),8,10,18(25),19,22-heptaene-3,17-dione]	100 to 3000 nM	100 to 3000 nM	–
CS(=O)(=O)N1CCCOc2ccc(F)cc2[C@H]2CCCN2c2ccn3ncc(c3n2)C1 [Example 27, (6R)-9-fluoro-7-methanesulfonyl-13-oxa-2,17,21,22,25-pentaazapentacyclo[17.5.2.0^2,6.0^7,12.0^22,26]hexacosa-1(25),7,9,11,19(26),20,23-heptaene]	1 to 100 nM	–	–
O=C1NCCCNc2ncc(F)cc2[C@H]2CCCN2c2ccn3ncc1c3n2 [Example 13, (6R)-9-fluoro-2,11,13,17,21,22,25-heptaazapentacyclo[17.5.2.0^2,6.0^7,12.0^22,26]hexacosa-1(25),7,9,11,19(26),20,23-heptaen-18-one]	1 to 100 nM	–	–
O=C1NC[C@@H](O)COc2ccc(F)cc2[C@@H]2C[C@@H](O)CN2c2ccn3ncc1c3n2 [Example 44-B, (4R,6S,15R)-9-fluoro-4,15-dihydroxy-13-oxa-2,17,21,22,25-pentaazapentacyclo [17.5.2.0^2,6.0^7,12.0^22,26]hexacosa-1(25),7(2),8,10,19(26),20,23-heptaen-18-one]	–	1 to 100 nM	–
CCNC(=O)N1CCOc2ccc(F)cc2[C@H]2CCCN2c2ccn3ncc(c3n2)C1 [Example 29, (6R)—N-ethyl-9-fluoro-13-oxa-2,16,20,21,24-pentaazapentacyclo-[16.5.2.0^2,6.0^7,12.0^21,25]pentacosa-1(24),7,9,11,18(25),19,22-heptaene-16-carboxamide]	1 to 100 nM	–	–
O=C(O)CN1CCOc2ccc(F)cc2[C@H]2CCCN2c2ccn3ncc(c3n2)C1 [Example 26, 2-[(6R)-9-fluoro-13-oxa-2,16,20,21,24-pentaazapentacyclo[16.5.2.0^2,6.0^7,12.0^21,25]pentacosa-1(24),7,9,11,18(25),19,22-heptaen-16-yl]acetic acid]	100 to 3000 nM	100 to 3000 nM	–
CS(=O)(=O)N1CCOc2ccc(F)cc2[C@H]2CCCN2c2ccn3ncc(c3n2)C1 [Example 25, (6R)-9-fluoro-16-methanesulfonyl-13-oxa-2,16,20,21,24-pentaazapentacyclo[16.5.2.0^2,6.0^7,12.0^21,25]pentacosa-1(24),7,9,11,18(25),19,22-heptaene]	1 to 100 nM	–	–
O=C1NC[C@H](O)COc2ccc(F)cc2C2CC(F)(F)CN2c2ccn3ncc1c3n2 (single isomer, unassigned; diastereomer 2) [45 Diastereomer 2]	–	–	IC50 [1, 3]: 1 to 100 nM
CCNC(=O)N1CCCOc2ccc(F)cc2[C@H]2CCCN2c2ccn3ncc(c3n2)C1 [Example 28]	1 to 100 nM	–	–
O=C1NCCOc2ccc(F)cc2[C@H]2C[C@@H](O)CN2c2ccn3ncc1c3n2 [Example 43, (4R,6R)-9-fluoro-4-hydroxy-13-oxa-2,16,20,21,24-pentaazapentacyclo [16.5.2.0^2,6.0^7,12.0^21,25]pentacosa-1(24),7,9,11,18(25),19,22-heptaen-17-one]	–	1 to 100 nM	–
C[C@H]1CNC(=O)c2cnn3ccc(nc23)N2CCC[C@@H]2c2cc(F)cn(c2=O)C1 [Example 35, (6R,13S)-9-fluoro-13-methyl-2, 11, 15,19,20,23-hexaazapentacyclo [15.5.2.1^7,11.0^2,6.0^20,24]pentacosa-1(23),7,9,17(24),18,21-hexaene-16,25-dione]	–	1 to 100 nM	–
O=C1NC[C@@H](F)Cn2cc(F)cc(c2=O)[C@H]2CCCN2c2ccn3ncc1c3n2 [Example 17, (6R,13R)-9,13-difluoro-2,11,15,19,20,23-hexaazapentacyclo[15.5.2.1^7,11.0^2,6.0^20,24]pentacosa-1(23),7,9,17(24),18,21-hexaene-16,25-dione]	1 to 100 nM	–	–
O=C1NC[C@@H](O)COc2ccc(F)cc2[C@H]2C[C@@H](O)CN2c2ccn3ncc1c3n2 [Example 44, (4R,6R,15R)-9-fluoro-4,15-dihydroxy-13-oxa-2,17,21,22,25-pentaazapentacyclo [17.5.2.0^2,6.0^7,12.0^22,26]hexacosa-1(25),7(12),8,10,19(26),20,23-heptaen-18-one]	–	1 to 100 nM	–
O=C1NC[C@H](O)COc2ccc(F)cc2C2CC(F)(F)CN2c2ccn3ncc1c3n2 (single isomer, unassigned; diastereomer 1) [45 Diastereomer 1]	–	–	IC50 [1, 3]: 1 to 100 nM
O=C1NC[C@H](O)COc2ccc(F)cc2[C@@H]2C[C@@H](O)CN2c2ccn3ncc1c3n2 [Example 41-B, (4R,6S,15S)-9-fluoro-4,15-dihydroxy-13-oxa-2,17,21,22,25-pentaazapentacyclo [17.5.2.0^2,6.0^7,12.0^22,26]hexacosa-1(25),7(12),8,10,19(26),20,23-heptaen-18-one]	–	–	IC50 [1, 3]: 100 to 3000 nM
